From patent US12297182B2, “Compositions comprising an urolithin compound” (Amazentis SA, priority 2015, dated 2025)

Experiments:
[1] = parameters: species or system male Sprague-Dawley rats; conditions: rat, in vivo, po
Method: The solutions for gavage were prepared as follows: 35 mg of urolithin A powder was diluted in 7 ml of 15% DMSO, 0.5% methyl cellulose/0.25% Tween 80 in water, resulting in a 5 mg/ml fine suspension. The DMSO was obtained from BDH, methyl cellulose was obtained from Sigma, and Tween 80 was obtained from Sigma-Aldrich.
Blood was collected from the rats by jugular vein cannulation at different time points, and urolithin A was quantified in the plasma to determine its pharmacokinetic profile following oral gavage of Sample #1, Sample #2, and Sample #3. The study was repeated on three rats for each sample. […]

[2] = system: 22 month old C57BL/6J old mice; experiment: Treadmill endurance test in old mice fed a high protein diet with or without Urolithin A; assay type: in vivo; conditions: Urolithin A 50 mg/kg/day in high protein diet, 6 weeks, normalized over basal values, compared to mice receiving only a protein diet; no exercise regimen
Text: To mimic age related muscle loss in humans, an experimental animal model was setup in old mice. The control diet designed to be used in the experimental study was a high protein diet that would be analogous to a clinically recommended high protein diet in elderly humans at risk of muscle loss. The diet was formulated to improve the performance of old animals that consume them. The high protein diet has a better balance of essential nutrients (amino acids, vitamins and minerals) and is supplemented with 200 gr casein per kg of diet, instead of 140 gr of casein in the regular maintenance diet (Reeves PG, J. Nutr. 1997, 127(5) 838S-841S). Casein proteins are nutritionally complete, highly digestible proteins with high amino scores that contain all amino acids in amounts sufficient to support maintenance of all body proteins. Urolithin A was admixed to the high protein diet at a level of 0.57 g per kg of diet. Both the diets were isocaloric. 22 month old C57BL/6J old mice that would be equivalent to a 65 yr to 75 yr old elderly human were treated with either the high protein diet alone or a high protein diet containing Urolithin A. Both the diets contained in addition to the casein protein, essential nutrient for optimal muscle function such as L-cysteine and vitamins and mineral mix. The level of Urolithin A in the diet results in a dose of 50 mg/kg/day delivered to mice. […]

myotubes = conditions: in vitro; cited from earlier work

O=c1oc2cc(O)ccc2c2ccc(O)cc12 [Sample #2, Urolithin A]
fold increase in the Cmax ([1]; male, Sprague-Dawley, 25 mg/kg): 2.16 fold | relative increase in the AUC ([1]; male, Sprague-Dawley, 25 mg/kg): 28% | relative increase in the Cmax ([1]; male, Sprague-Dawley, 25 mg/kg): 116%

O=c1oc2cc(O)ccc2c2ccc(O)cc12 [Sample #3, Urolithin A]
relative increase in the AUC ([1]; male, Sprague-Dawley, 25 mg/kg): 26%

O=c1oc2cc(O)ccc2c2ccc(O)cc12 [Urolithin A]
increase in running distance [2]: 42% | increase in running time [2]: 28% | bioavailability (in words) [1]: increase in bioavailability

O=c1oc2cc(O)ccc2c2ccccc12 [Urolithin B]
effect on mean diameter of myotubes (myotubes): increased
